Laboratory results from PubChem BioAssay (NCI).
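The concentration for 50% growth inhibition is given as GI50. Definition used: TGI = concentration required for complete inhibition of growth.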

Assays:
Assay in all cases: inhibition of tumour cell growth, NCI panel, 384-well format
[1] = system: OVCAR-4 ovarian
[2] = system: NCI-H322M lung
[3] = system: OVCAR-3 ovarian
[4] = system: HS 578T breast
[5] = system: SNB-19 CNS
[6] = system: MDA-MB-435 melanoma
[7] = system: UACC-257 melanoma
[8] = system: M14 melanoma
[9] = system: MALME-3M melanoma
[10] = system: PC-3 prostate
[11] = system: 786-0 renal
[12] = system: SF-268 CNS
[13] = system: MOLT-4 leukemia
[14] = system: NCI/ADR-RES ovarian
[15] = system: ACHN renal
[16] = system: UO-31 renal
[17] = system: U251 glioblastoma
[18] = system: KM12 colon
[19] = system: NCI-H226 lung
[20] = system: TK-10 renal
[21] = system: IGROV1 ovarian
[22] = system: NCI-H23 lung
[23] = system: HOP-62 NSCLC
[24] = system: HCT-116 colon
[25] = system: NCI-H460 NSCLC
[26] = system: SK-OV-3 ovarian
[27] = system: CAKI-1 renal
[28] = system: A498 renal
[29] = system: SW-620 colon
[30] = system: A549 NSCLC
[31] = system: RPMI-8226 leukemia
[32] = system: MDA-MB-468 breast
[33] = system: COLO 205 colon
[34] = system: SF-295 CNS
[35] = system: OVCAR-5 ovarian
[36] = system: SF-539 CNS
[37] = system: SNB-75 CNS
[38] = system: HOP-92 NSCLC
[39] = system: HT29 colon
[40] = system: MCF7 breast
[41] = system: RXF 393 renal
[42] = system: DU-145 prostate
[43] = system: HCT-15 colon
[44] = system: CCRF-CEM leukemia
[45] = system: EKVX NSCLC
[46] = system: UACC-62 melanoma
[47] = system: HCC-2998 colon
[48] = system: T-47D breast
[49] = system: BT-549 breast
[50] = system: OVCAR-8 ovarian
[51] = system: LOX IMVI melanoma
[52] = system: SN12C renal
[53] = system: MDA-MB-231 breast
[54] = system: SK-MEL-2 melanoma
[55] = system: NCI-H522 lung
[56] = system: SK-MEL-5 melanoma
[57] = system: SK-MEL-28 melanoma
[58] = system: K-562 leukemia
[59] = system: HL-60(TB) leukemia
[60] = system: SR leukemia

`Cc1cc(C(=O)N[C@@H](CCC(=O)O)C(=O)O)sc1CC[C@@H]1CNc2nc(N)[nH]c(=O)c2C1` gave a GI50 [1] of 20.6 nM, a TGI [1] of 43.5 nM and a GI50 [2] of 20.2 nM. It also gave a TGI [2] of 39.4 nM, a GI50 [3] of 19 nM and a TGI [3] of 41.2 nM. It also gave a GI50 [4] of 15.8 nM, a TGI [4] of 38.2 nM and a GI50 [5] of less than 10 nM. It also gave a TGI [5] of 23.1 nM, a GI50 [6] of 18.5 nM and a TGI [6] of 36.4 nM. The GI50 [7] was 10.2 nM, the TGI [7] was 27.7 nM and the GI50 [8] was less than 10 nM. The TGI [8] was 20.1 nM, the GI50 [9] was 20 nM and the TGI [9] was 37.2 nM. The GI50 [10] was less than 10 nM, the TGI [10] was less than 10 nM and the GI50 [11] was less than 10 nM. For the same compound, the TGI [11] was less than 10 nM, the GI50 [12] was less than 10 nM and the TGI [12] was 20.8 nM. For the same compound, the GI50 [13] was less than 10 nM, the TGI [13] was less than 10 nM and the GI50 [14] was 20.1 nM. It also gave a TGI [14] of 37.3 nM, a GI50 [15] of less than 10 nM and a TGI [15] of 22.5 nM. The GI50 [16] was less than 10 nM, the TGI [16] was 11.6 nM and the GI50 [17] was less than 10 nM. The TGI [17] was less than 10 nM, the GI50 [18] was 28.5 nM and the TGI [18] was 72.7 nM. The GI50 [19] was 17.2 nM, the TGI [19] was 39.4 nM and the GI50 [20] was less than 10 nM. The TGI [20] was less than 10 nM, the GI50 [21] was 19.9 nM and the TGI [21] was 40 nM. The GI50 [22] was 39.2 nM, the TGI [22] was 157 nM and the GI50 [23] was 17.9 nM. For the same compound, the TGI [23] was 37.8 nM, the GI50 [24] was less than 10 nM and the TGI [24] was 24 nM. The GI50 [25] was less than 10 nM, the TGI [25] was 82.7 nM and the GI50 [26] was less than 10 nM. It also gave a TGI [26] of 24.5 nM, a GI50 [27] of less than 10 nM and a TGI [27] of less than 10 nM. For the same compound, the GI50 [28] was less than 10 nM, the TGI [28] was 14.9 nM and the GI50 [29] was 12.4 nM. The TGI [29] was 30.1 nM, the GI50 [30] was 21.5 nM and the TGI [30] was 46 nM. For the same compound, the GI50 [31] was 18.2 nM, the TGI [31] was 36.3 nM and the GI50 [32] was 19.4 nM. It also gave a TGI [32] of 41.6 nM, a GI50 [33] of 25.4 nM and a TGI [33] of 56.1 nM. It also gave a GI50 [34] of 19.4 nM, a TGI [34] of 36.8 nM and a GI50 [35] of 10.1 nM. For the same compound, the TGI [35] was 23.8 nM, the GI50 [36] was less than 10 nM and the TGI [36] was 21 nM. The GI50 [37] was less than 10 nM, the TGI [37] was less than 10 nM and the GI50 [38] was less than 10 nM. The TGI [38] was less than 10 nM, the GI50 [39] was 17.4 nM and the TGI [39] was 37.2 nM. For the same compound, the GI50 [40] was 15.7 nM, the TGI [40] was 37 nM and the GI50 [41] was less than 10 nM. It also gave a TGI [41] of 16.2 nM, a GI50 [42] of less than 10 nM and a TGI [42] of less than 10 nM. For the same compound, the GI50 [43] was 25 nM, the TGI [43] was 57.8 nM and the GI50 [44] was less than 10 nM. It also gave a TGI [44] of less than 10 nM, a GI50 [45] of 11.4 nM and a TGI [45] of 27.4 nM. For the same compound, the GI50 [46] was 21 nM, the TGI [46] was 50.1 nM and the GI50 [47] was 33.2 nM. It also gave a TGI [47] of 1030 nM, a GI50 [48] of 21.7 nM and a TGI [48] of 60.1 nM. For the same compound, the GI50 [49] was 18.3 nM, the TGI [49] was 35 nM and the GI50 [50] was 17 nM. The TGI [50] was 34.6 nM, the GI50 [51] was 20 nM and the TGI [51] was 40 nM. It also gave a GI50 [52] of less than 10 nM, a TGI [52] of less than 10 nM and a GI50 [53] of 345 nM. For the same compound, the TGI [53] was 1200 nM, the GI50 [54] was less than 10 nM and the TGI [54] was 14.7 nM. The GI50 [55] was 12.7 nM, the TGI [55] was 28.5 nM and the GI50 [56] was 30.5 nM. For the same compound, the TGI [56] was 135 nM, the GI50 [57] was 18.4 nM and the TGI [57] was 35.9 nM. For the same compound, the GI50 [58] was less than 10 nM and the TGI [58] was less than 10 nM.

`NC(=O)c1ccc2nc(-c3ccc(C4(N)CCC4)cc3)c(-c3ccccc3)n2n1` gave a GI50 [1] of 14600 nM, a TGI [1] of 28200 nM and a GI50 [2] of 9270 nM. It also gave a TGI [2] of 21600 nM, a GI50 [3] of 683 nM and a TGI [3] of 18000 nM. The GI50 [4] was 1780 nM, the TGI [4] was 11800 nM and the GI50 [5] was 13000 nM. It also gave a TGI [5] of 25900 nM, a GI50 [6] of 12600 nM and a TGI [6] of 25200 nM. For the same compound, the GI50 [7] was 11300 nM, the TGI [7] was 23400 nM and the GI50 [8] was 12800 nM. For the same compound, the TGI [8] was 25500 nM, the GI50 [9] was 2140 nM and the TGI [9] was 17100 nM. For the same compound, the GI50 [10] was 250 nM, the TGI [10] was 12800 nM and the GI50 [11] was 2220 nM. It also gave a TGI [11] of 13600 nM, a GI50 [12] of 12300 nM and a TGI [12] of 24800 nM. The GI50 [13] was 305 nM, the TGI [13] was 1930 nM and the GI50 [14] was 15300 nM. It also gave a TGI [14] of 29300 nM, a GI50 [15] of 11200 nM and a TGI [15] of 23300 nM. The GI50 [16] was 2910 nM, the TGI [16] was 16000 nM and the GI50 [17] was 10400 nM. It also gave a TGI [17] of 22200 nM, a GI50 [18] of 7110 nM and a TGI [18] of 20400 nM. The GI50 [19] was 8960 nM, the TGI [19] was 21500 nM and the GI50 [20] was 5700 nM. The TGI [20] was 20500 nM, the GI50 [21] was 250 nM and the TGI [21] was 11700 nM. For the same compound, the GI50 [22] was 4850 nM, the TGI [22] was 17500 nM and the GI50 [23] was 12100 nM. The TGI [23] was 24500 nM, the GI50 [24] was 5690 nM and the TGI [24] was 18900 nM. For the same compound, the GI50 [25] was 1130 nM, the TGI [25] was 15800 nM and the GI50 [26] was 538 nM. The TGI [26] was 12700 nM, the GI50 [27] was 2540 nM and the TGI [27] was 16800 nM. It also gave a GI50 [28] of 389 nM, a TGI [28] of 10600 nM and a GI50 [29] of 15800 nM. For the same compound, the TGI [29] was 29300 nM, the GI50 [30] was 5310 nM and the TGI [30] was 18600 nM. It also gave a GI50 [59] of 4260 nM, a TGI [59] of 17000 nM and a GI50 [31] of 2390 nM. It also gave a TGI [31] of 10300 nM, a GI50 [32] of 125 nM and a TGI [32] of 8310 nM. It also gave a GI50 [33] of 2280 nM, a TGI [33] of 16900 nM and a GI50 [34] of 944 nM. It also gave a TGI [34] of 11000 nM, a GI50 [36] of 3590 nM and a TGI [36] of 16600 nM. For the same compound, the GI50 [37] was 1250 nM, the TGI [37] was 14600 nM and the GI50 [38] was 5020 nM. It also gave a TGI [38] of 18700 nM, a GI50 [39] of 2620 nM and a TGI [39] of 17900 nM. For the same compound, the GI50 [40] was 125 nM, the TGI [40] was 12400 nM and the GI50 [41] was 1600 nM. It also gave a TGI [41] of 10700 nM, a GI50 [42] of 11800 nM and a TGI [42] of 24600 nM. It also gave a GI50 [43] of 11900 nM, a TGI [43] of 24400 nM and a GI50 [44] of 498 nM. It also gave a TGI [44] of 10700 nM, a GI50 [45] of 5350 nM and a TGI [45] of 20300 nM. For the same compound, the GI50 [46] was 3010 nM, the TGI [46] was 16400 nM and the GI50 [47] was 11200 nM. The TGI [47] was 23200 nM, the GI50 [48] was 28.2 nM and the TGI [48] was 2990 nM. It also gave a GI50 [49] of 2010 nM, a TGI [49] of 15200 nM and a GI50 [50] of 12800 nM. For the same compound, the TGI [50] was 25500 nM, the GI50 [51] was 8430 nM and the TGI [51] was 20700 nM. The GI50 [60] was 230 nM, the TGI [60] was 990 nM and the GI50 [52] was 8080 nM. For the same compound, the TGI [52] was 20900 nM, the GI50 [53] was 11400 nM and the TGI [53] was 23700 nM. For the same compound, the GI50 [55] was 13700 nM, the TGI [55] was 26600 nM and the GI50 [56] was 3810 nM. It also gave a TGI [56] of 16300 nM, a GI50 [57] of 6420 nM and a TGI [57] of 20200 nM. It also gave a GI50 [58] of 4200 nM and a TGI [58] of 16200 nM.
